Laboratory results as given in patent publication US11242337B2, “Compounds useful for treating gastrointestinal tract disorders” (Ardelyx, Inc., priority 2017, dated 2022).
Where two headings read alike, the source gives them in different places.

Key:
[1] = tested on: absorption of sodium from the intestinal lumen; experiment: Inhibition of intestinal sodium absorption in mice; type: in vivo; conditions: CD-1 mice, 15 mg/kg oral gavage twice daily; for Fecal fluid content (Δ from vehicle): day 3, change from vehicle group mean; for response vs control in vivo at 15 mg/kg: Mus musculus, 72 h, day 3, normalized to dietary sodium intake
Description: Urinary and fecal sodium excretions were measured to assess the ability of selected example compounds to inhibit the absorption of sodium from the intestinal lumen. In addition, an assessment of the absence or presence of diarrhea in response to compound treatment was made. Approximately eight-week old, male, CD-1 mice were purchased from Envigo (Livermore, Calif.), were housed 6 per cage and acclimated for at least 48 hours before study initiation. Animals were fed Harlan Teklad Global TD.160470 rodent chow (Madison, Wis.), standard laboratory rodent chow Harlan Teklad Global 2018 with the addition of 0.4% inorganic phosphorous. […] To initiate the study, mice were weighed and then individually placed in metabolic cages. Following a 3-day acclimation period to the metabolic cage, a 24-hr baseline collection of urine and feces was performed. […] Each day, measurements of body weight. 24-hour food intake, water intake, urine volume and wet fecal weight were recorded, along with any observation of diarrhea. Fecal samples were dried using a lyophilizer for at least 3 days, following which dry weight was recorded and fecal fluid content was calculated based on the difference between the wet and dry stool weights. Fecal fluid content on day 3 of compound treatment was calculated as a change from the vehicle group mean. For urine samples, the volumes were determined gravimetrically. Feces and urine were analyzed for sodium content by microwave plasma-atomic emission spectroscopy or ion chromatography, respectively. Urine samples were analyzed on an ion chromatography system (Thermo Fisher ICS-3000 or ICS-5000+) coupled with conductivity detectors. Chromatographic separation of cations was performed using an IonPac CS12A (Thermo Fisher) 2×250 mm analytical column with an isocratic elution using […] methanesulfonic acid. Concentrations were interpolated from a a standard curve (prepared in 10 mM HCl) for sodium ion based on retention time and peak area. Fecal sample analysis by Microwave Plasma Atomic Emission Spectrometry (MP-AES). Dry fecal samples were ground into a fine powder on a homogenizer and the ground samples (400-600 mg aliquots weighed) were digested with nitric acid by microwave method (Mars 6). These digested samples were diluted with 1% Nitric acid and analyzed on Agilent 4100 MP-AES. Concentrations were calculated relative to a standard curve (prepared in 1% Nitric acid) for sodium based on the signal intensity. Sodium was detected at a wavelength of 588.995 nm. Twenty-four-hour urinary sodium excretion (ma/24-hours) was calculated by multiplying urinary sodium concentration by 24-hour urine volume. Twenty-four-hour fecal sodium excretion (mg/24-hours) was calculated by multiplying fecal sodium concentration by 24-hour dry fecal weight. The urinary and fecal sodium excretion on day 3 of compound treatment were normalized to dietary sodium intake and expressed as a percentage of the vehicle mean.

[2] = tested on: human ileum monolayer culture; experiment: Sustained inhibition of apical acid secretion in human organoid monolayer cell cultures (ileum); type: cell-based; conditions: Homo sapiens, 48 h; 1 μM apical, dosed day 6, apical media pH day 8, vs DMSO
Description: Basal media (BM) consisted of advanced DMEM/F12 containing 10 mM HEPES Invitrogen, 15630-080), 1:100 Glutamax (Invitrogen, 35050-061), and 1:100 penicillin/streptomycin (Invitrogen, 15140-122). Supplemented basal media (SBM) contained 1:100 N2 (Invitrogen, 17502-048), 1:50 B27 (Invitrogen, 12587-010), 1 mM N-acetylcysteine (Sigma, A9165), and 10 nM [Leu15]-gastrin I (Sigma, G9145). Growth factors used included 50 ng per mL mouse EGF (Peprotech, 315-09), 100 ng per mL mouse noggin (Peprotech, 250-38), 500 ng per mL human R-spondin 1 (R&D, 4645-RS), 100 ng per mL mouse Wnt-3a (R&D, 1324-WN), 20 μM. Y-27632 (Tocris, 1254), 10 mM nicotinamide (Sigma, N0636), 500 nM A83-01 (Tocris, 2939), 10 μM SB202190 (Tocris, 1264). Transwells were 0.4 μm pore polyester membrane 24-well Transwell inserts (Corning). Cultures were incubated at 37° C. in 5% CO2.
Human ileum organoids were cultured in WENRNAS (Wnt, EGF, noggin, R-spondin1, Nicotinamide, A83-01, SB202190) and typically grown for 7-12 days before being used to plate monolayer cultures. On day 0, organoid cultures embedded in Matrigel were treated with TrypLE Express to break organoids into small pieces and/or single cells. The cells were resuspended to 0.5×10^6 cells/mL in SBM containing WENRAY (Wnt, EGF, noggin, R-spondin1, A83-01, Y-27632). Following this step, 200 μL of cell suspension was plated into the apical side of a 24-well Transwell (100,000 cells/well) and 600 μL of SBM with WENRAY was added to the basolateral side. Ileum cells were differentiated with ENRA (EGF, noggin, R-spondin 1, A83-01) on day 3. The color of apical compartment turns from pink or orange to yellow due to the increase in NHE3 expression after differentiation.
Each human ileum monolayer culture well was washed twice with fresh SBM on the apical side on day 6 before compound dosing. All compound stocks were 10 mM dissolved in DMSO. Each compound stock was individually mixed with fresh SBM to reach final compound concentration 1 μM and dosed only on the apical side of the monolayer (total volume 200 μl). DMSO at the equivalent concentration was used as the vehicle control. Duplicate wells were dosed for each compound. On day 8, apical media pH was measured by pH electrode, to determine the ability of example compounds to produce sustained inhibition of NHE3 activity in a human monolayer culture system by preventing proton secretion into the apical compartment.

[3] = read-out: Fecal Na Excretion (% of vehicle)
[4] = read-out: Urinary Na Excretion (% of vehicle)

Structure (SMILES) | Fecal fluid content (Δ from vehicle) [1] | response vs control in vivo at 15 mg/kg [1, 3] | response vs control in vivo at 15 mg/kg [1, 4] | inhibition at 1 µM [2]
Cc1cc(Cl)cc2c1C[C@H](N1CCC[C@@H](N(C)C)C1)[C@H]2Oc1ccc(S(=O)(=O)NCCOCCOCCNC(=O)NCCCCNC(=O)NCCOCCOCCNS(=O)(=O)c2ccc(O[C@H]3c4cc(Cl)cc(C)c4C[C@@H]3N3CCC[C@@H](N(C)C)C3)c(F)c2)cc1F [Example 30, 3-[2-(2-[2-[(4-[[(1S,2S)-6-Chloro-2-[(3R)-3-(dimethylamino)piperidin-1-yl]-4-methyl-2,3-dihydro-1H-inden-1-yl]oxy]-3-fluorobenzene)sulfonamido]ethoxy]ethoxy)ethyl]-1-[4-([[2-(2-[2-[(4-[[(1S,2S)-6-chloro-2-[(3R)-3-(dimethylamino)piperidin-1-yl]-4-methyl-2,3-dihydro-1H-inden-1-yl]oxy]-3-fluorobenzene)sulfonamido]ethoxy]ethoxy)ethyl]carbamoyl]amino)butyl]urea; bis(trifluoroacetic acid)] | C (>10) | > 200% | 50 to 70% | –
Cc1cc(S(=O)(=O)N[C@@H]2CCN(CCOCCNC(=O)NCCCCNC(=O)NCCOCCN3CC[C@@H](NS(=O)(=O)c4ccc(O[C@H]5c6cc(Cl)cc(Cl)c6C[C@@H]5N(C)C)c(C)c4)C3)C2)ccc1O[C@H]1c2cc(Cl)cc(Cl)c2C[C@@H]1N(C)C [Example 53, 3-(2-[2-[(3R)-3-[(4-[[(1S,2S)-4,6-Dichloro-2-(dimethylamino)-2,3-dihydro-1H-inden-1-yl]oxy]-3-methylbenzene)sulfonamido]pyrrolidin-1 yl]ethoxy]ethyl)-1-(4-[[(2-[2-[(3R)-3-[(4-[[(1S,2S)-4,6-dichloro-2-(dimethylamino)-2,3-dihydro-1H-inden-1-yl]oxy]-3-methylbenzene)sulfonamido]pyrrolidin-1-yl]ethoxy]ethyl)carbamoyl]amino]butyl)urea] | B (5-10) | < 150% | > 70% | –
Cc1cc(O[C@H]2c3cc(Cl)cc(Cl)c3C[C@@H]2N(C)C)c(F)cc1S(=O)(=O)NCCOCCOCCNC(=O)NCCCCNC(=O)NCCOCCOCCNS(=O)(=O)c1cc(F)c(O[C@H]2c3cc(Cl)cc(Cl)c3C[C@@H]2N(C)C)cc1C [Example 88, 3-[2-(2-[2-[(4-[[(1S,2S)-4,6-Dichloro-2-(dimethylamino)-2,3-dihydro-1H-inden-1-yl]oxy]-5-fluoro-2-methylbenzene)sulfonamido]ethoxy]ethoxy)ethyl]-1-[4-([[2-(2-[2-[(4-[[(1S,2S)-4,6-dichloro-2-(dimethylamino)-2,3-dihydro-1H-inden-1-yl]oxy]-5-fluoro-2-methylbenzene)sulfonamido]ethoxy]ethoxy)ethyl]carbamoyl]amino)butyl]urea] | B (5-10) | 150 to 200% | 50 to 70% | –
Cc1cc(S(=O)(=O)N[C@H]2CCN(CCOCCNC(=O)NCCCCNC(=O)NCCOCCN3CC[C@H](NS(=O)(=O)c4ccc(O[C@H]5c6cc(Cl)cc(Cl)c6C[C@@H]5N(C)C)c(C)c4)C3=O)C2=O)ccc1O[C@H]1c2cc(Cl)cc(Cl)c2C[C@@H]1N(C)C [Example 91, 1-(2-[2-[(3S)-3-[(4-[[(1S,2S)-4,6-Dichloro-2-(dimethylamino)-2,3-dihydro-1H-inden-1-yl]oxy]-3-methylbenzene)sulfonamido]-2-oxopyrrolidin-1-yl]ethoxy]ethyl)-3-(4-[[(2-[2-[(3S)-3-[(4-[[(1S,2S)-4,6-dichloro-2-(dimethylamino)-2,3-dihydro-1H-inden-1-yl]oxy]-3-methylbenzene)sulfonamido]-2-oxopyrrolidin-1-yl]ethoxy]ethyl)carbamoyl]amino]butyl)urea] | – | – | – | 50 to 70%
O=C(NCCCCNC(=O)NCCOCCN1CC[C@@H](NS(=O)(=O)c2ccc(O[C@H]3c4cc(Cl)cc(Cl)c4C[C@@H]3N3CCNCC3)c(F)c2)C1)NCCOCCN1CC[C@@H](NS(=O)(=O)c2ccc(O[C@H]3c4cc(Cl)cc(Cl)c4C[C@@H]3N3CCNCC3)c(F)c2)C1 [Example 105, 4-([(1S,2S)-4,6-Dichloro-2-(piperazin-1-yl)-2,3-dihydro-1H-inden-1-yl]oxy)-N—[(R)-1-(20-[(R)-3-([4-([(1S2S)-4,6-dichloro-2-(piperazin-1-yl)-2,3-dihydro-1H-inden-1-yl]oxy)-3-fluorophenyl]sulfonamido)pyrrolidin-1-yl]-7,14-dioxo-3,18-dioxa-6,8,13,15-tetraazaicosyl)pyrrolidin-3-yl]-3-fluorobenzenesulfonamide; tetra(trifluoroacetate)] | – | – | – | > 70%
O=C(NCCCCNC(=O)NCCOCCN1CC[C@H](NS(=O)(=O)c2ccc(O[C@H]3c4cc(Cl)cc(Cl)c4C[C@@H]3N3CCNCC3)c(F)c2)C1)NCCOCCN1CC[C@H](NS(=O)(=O)c2ccc(O[C@H]3c4cc(Cl)cc(Cl)c4C[C@@H]3N3CCNCC3)c(F)c2)C1 [Example 106, 4-([(1S,2S)-4,6-Dichloro-2-(piperazin-1-yl)-2,3-dihydro-1H-inden-1-yl]oxy)-N—[(S)-1-(20-[(S)-3-([4-([(1S,2S)-4,6-dichloro-2-(piperazin-1-yl)-2,3-dihydro-1H-inden-1-yl]oxy)-3-fluorophenyl]sulfonamido)pyrrolidin-1-yl]-7,14-dioxo-3,18-dioxa-6,8,13,15-tetraazaicosyl)pyrrolidin-3-yl]-3-fluorobenzenesulfonamide; tetra(trifluoroacetate)] | – | – | – | > 70%
N#Cc1cc(Cl)cc2c1C[C@H](N1CCNCC1)[C@H]2Oc1ccc(S(=O)(=O)N[C@H]2CCN(CCOCCNC(=O)NCCCCNC(=O)NCCOCCN3CC[C@H](NS(=O)(=O)c4ccc(O[C@H]5c6cc(Cl)cc(C#N)c6C[C@@H]5N5CCNCC5)cc4)C3)C2)cc1 [Example 107, 4-([(1S,2S)-6-Chloro-4-cyano-2-(piperazin-1-yl)-2,3-dihydro-1H-inden-1-yl]oxy)-N—[(S)-1-(20-[(S)-3-([4-([(1S,2S)-6-chloro-4-cyano-2-(piperazin-1-yl)-2,3-dihydro-1H-inden-1-yl]oxy)phenyl]sulfonamido)pyrrolidin-1-yl]-7,14-dioxo-3,18-dioxa-6,8,13,15-tetraazaicosyl)pyrrolidin-3-yl]benzenesulfonamide; tetra(trifluoroacetate)] | – | – | – | > 70%
